Results as given in US20240360178A1, “MACROCYCLIC IMMUNOMODULATORS” (Bristol-Myers Squibb Company, priority 2021, published 2024).
Positions of bridges follow the written chain, without caps; N, C: chain ends. Non-standard residues stand in square brackets, D forms with d. Residues, ends and D or L forms follow the SMILES beside them. ξ: configuration not given here. *: point of attachment. Phe(3-CF3) = N[C@@H](Cc1cccc(C(F)(F)F)c1)C(=O)O; Bip = N[C@@H](Cc1ccc(-c2ccccc2)cc1)C(=O)O; NMeF = CN[C@@H](Cc1ccccc1)C(=O)O; 4Pal = N[C@@H](Cc1ccncc1)C(=O)O; Cha = N[C@@H](CC1CCCCC1)C(=O)O; Cit = NC(=O)NCCC[C@H](N)C(=O)O; Carboxymethyl = O=C(O)C*; NMeA = CN[C@@H](C)C(=O)O; Orn = NCCC[C@H](N)C(=O)O; Dab = NCC[C@H](N)C(=O)O; ξV = CC(C)C(N)C(=O)O; Sar = CNCC(=O)O

These compounds were tested against T1, human PD-1 (Jurkat-PD-1 cells) / PE-labeled human PD-L1-Ig (Homo sapiens, UniProt Q15116) (assay: Jurkat-PD-1 Cell Binding High-Content Screening Assay (CBA); Jurkat hPD1-PDL1 assay). Details: Jurkat cell line over-expressing human PD-1; PE-labeled PD-L1-Ig 20 nM final; compound incubated 2 hours at 37° C.; read-out: Jurkat HPD1-PDL1 IC50.
T1 construct: expressed in transfected cells; host or cells: Jurkat cell line over-expressing human PD-1
T1 sequence (Q15116 25-288): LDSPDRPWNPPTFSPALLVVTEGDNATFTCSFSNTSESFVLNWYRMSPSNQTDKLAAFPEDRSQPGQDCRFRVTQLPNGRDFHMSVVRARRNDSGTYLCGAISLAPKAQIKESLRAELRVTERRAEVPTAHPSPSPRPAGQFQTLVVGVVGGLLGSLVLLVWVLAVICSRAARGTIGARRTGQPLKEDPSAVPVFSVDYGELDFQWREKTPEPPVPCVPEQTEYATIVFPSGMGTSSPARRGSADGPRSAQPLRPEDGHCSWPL
Summary of the method: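 Jurkat-hPD-1 cells; cpd 2 h, 37° C; then PE-PD-L1-Ig 20 nM final in DMEM/10% FCS; high-content imaging read-out.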

Row | IC50 | Compound
1 | 210 nM | CC(C)C[C@@H]1NC(=O)[C@H](Cc2c[nH]c3ccccc23)NC(=O)[C@H](CC(=O)O)NC(=O)[C@H](Cc2ccc(O)cc2)NC(=O)[C@H](Cc2ccccc2)NC(=O)CSC[C@@H](C(=O)N[C@@H](C)C(N)=O)NC(=O)[C@H]([C@@H](C)O)NC(=O)[C@H](C(C)C)NC(=O)[C@H](CC(C)C)NC(=O)[C@H](CC(N)=O)NC(=O)[C@H]2CCCN2C(=O)[C@H](CCCN)NC(=O)[C@H](C(C)C)NC(=O)[C@H](Cc2ccc(-c3ccccc3)cc2)NC1=O [Example 1418] ({CH2CO}-FYDWL[Bip]V[Orn][dP]NLVTCA-NH2; thioether N-14)
2 | 70 nM | CC(C)C[C@@H]1NC(=O)[C@H](CCN)NC(=O)[C@H](Cc2ccccc2)N(C)C(=O)[C@H](C)N(C)C(=O)[C@H](CCCNC(N)=O)NC(=O)[C@H](Cc2ccc(-c3ccccc3)cc2)NC(=O)[C@H](C(C)C)NC(=O)[C@H](Cc2cccc(C(F)(F)F)c2)NC(=O)[C@H](CC(=O)O)NC(=O)[C@H](Cc2ccc(O)cc2)NC(=O)[C@H](CC(N)=O)NC(=O)CSC[C@@H](C(=O)N[C@@H](C)C(N)=O)NC(=O)[C@H]([C@@H](C)O)NC(=O)[C@H](C(C)C)NC1=O [Example 1376] ({CH2CO}-NYD[Phe(3-CF3)]V[Bip][Cit][NMeA][NMeF][Dab]LVTCA-NH2; thioether N-14)
3 | 150 nM | CC(C)C[C@@H]1NC(=O)[C@H](CCCNC(=N)N)NC(=O)[C@H](Cc2ccccc2)N(C)C(=O)[C@H](C)N(C)C(=O)[C@H](CCCNC(=N)N)NC(=O)[C@H](Cc2ccc(-c3ccccc3)cc2)NC(=O)[C@H](C(C)C)NC(=O)[C@H](Cc2c[nH]c3ccccc23)NC(=O)[C@H](CC(=O)O)NC(=O)[C@H](Cc2ccc(O)cc2)NC(=O)[C@H](CC(N)=O)NC(=O)CSC[C@@H](C(=O)N[C@@H](C)C(N)=O)NC(=O)[C@H](CO)NC(=O)[C@H](C(C)C)NC1=O [Example 1301] ({CH2CO}-NYDWV[Bip]R[NMeA][NMeF]RLVSCA-NH2; thioether N-14)
4 | 380 nM | CC(C)C[C@@H]1NC(=O)[C@H](CCCNC(=N)N)NC(=O)[C@H](Cc2ccccc2)N(C)C(=O)[C@H](C)N(C)C(=O)[C@H](CCCNC(=N)N)NC(=O)[C@H](Cc2ccc(-c3ccccc3)cc2)NC(=O)[C@H](C(C)C)NC(=O)[C@H](Cc2c[nH]c3ccccc23)NC(=O)[C@H](CC(=O)O)NC(=O)[C@H](Cc2ccc(O)cc2)NC(=O)[C@H](CC(N)=O)NC(=O)CSC[C@@H](C(=O)N[C@@H](C)C(N)=O)NC(=O)[C@H]([C@@H](C)O)NC(=O)[C@H](C(C)C)NC1=O [Example 1318] ({CH2CO}-NYDWV[Bip]R[NMeA][NMeF]RLVTCA-NH2; thioether N-14)
5 | 350 nM | CC(C)C[C@@H]1NC(=O)[C@H](CCCNC(=N)N)NC(=O)[C@H](Cc2ccccc2)N(C)C(=O)[C@H](C)N(C)C(=O)[C@H](CCCNC(=N)N)NC(=O)[C@H](Cc2ccc(-c3ccccc3)cc2)NC(=O)[C@H](C(C)C)NC(=O)[C@H](Cc2c[nH]c3ccccc23)NC(=O)[C@H](CC(=O)O)NC(=O)[C@H](Cc2ccc(O)cc2)NC(=O)[C@H](Cc2cnc[nH]2)NC(=O)CSC[C@@H](C(=O)N[C@@H](C)C(N)=O)NC(=O)[C@H](CO)NC(=O)[C@H](C(C)C)NC1=O [Example 1302] ({CH2CO}-HYDWV[Bip]R[NMeA][NMeF]RLVSCA-NH2; thioether N-14)

The remaining lines, values behind:

Row | Compound | IC50
6 | CC(C)C[C@@H]1NC(=O)[C@H](Cc2c[nH]c3ccccc23)NC(=O)[C@H](CC(=O)O)NC(=O)[C@H](Cc2ccc(O)cc2)NC(=O)[C@H](Cc2ccccc2)NC(=O)CSC[C@@H](C(=O)NCC(N)=O)NC(=O)[C@H]([C@@H](C)O)NC(=O)[C@H](C(C)C)NC(=O)[C@H](CC(C)C)NC(=O)[C@H](CCN)NC(=O)[C@H]2CCCN2C(=O)[C@H](CCN)NC(=O)[C@H](C(C)C)NC(=O)[C@H](Cc2ccc(-c3ccccc3)cc2)NC1=O [Example 1414] ({CH2CO}-FYDWL[Bip]V[Dab][dP][Dab]LVTCG-NH2; thioether N-14) | 320 nM
7 | CC(C)C1NC(=O)[C@H](Cc2c[nH]c3ccccc23)NC(=O)[C@H](CC(=O)O)NC(=O)[C@H](Cc2ccncc2)NC(=O)[C@H](Cc2ccc(OCC(=O)O)cc2)NC(=O)CSC[C@@H](C(=O)N[C@@H](C)C(N)=O)NC(=O)[C@H]([C@@H](C)O)NC(=O)[C@H](C(C)C)NC(=O)[C@H](CC2CCCCC2)NC(=O)[C@H](CCN)NC(=O)[C@H](Cc2ccccc2)N(C)C(=O)[C@H](CCCN)NC(=O)[C@H](CCC(=O)O)NC(=O)[C@H](Cc2ccc(-c3ccccc3)cc2)NC1=O (some centres unmarked) [Example 1440] ({CH2CO}-Y(Carboxymethyl)[4Pal]DW[ξV][Bip]E[Orn][NMeF][Dab][Cha]VTCA-NH2; thioether N-14) | 70 nM
8 | CC(C)C[C@@H]1NC(=O)[C@H](Cc2c[nH]c3ccccc23)NC(=O)[C@H](CC(=O)O)NC(=O)[C@H](Cc2ccc(O)cc2)NC(=O)[C@H](Cc2c[nH]c3ccccc23)NC(=O)CSC[C@@H](C(=O)NCC(N)=O)NC(=O)[C@H](CO)NC(=O)[C@H](C(C)C)NC(=O)[C@H](CC(C)C)NC(=O)[C@H](CC(N)=O)NC(=O)CN(C)C(=O)[C@H](C)N(C)C(=O)[C@H](C(C)C)NC(=O)[C@H](Cc2ccc(-c3ccccc3)cc2)NC1=O [Example 1135] ({CH2CO}-WYDWL[Bip]V[NMeA][Sar]NLVSCG-NH2; thioether N-14) | 550 nM
9 | CC(C)C[C@@H]1NC(=O)[C@H](CCCNC(=N)N)NC(=O)[C@H](Cc2ccccc2)N(C)C(=O)[C@H](C)N(C)C(=O)[C@H](CCCNC(=N)N)NC(=O)[C@H](Cc2ccc(-c3ccccc3)cc2)NC(=O)[C@H](C(C)C)NC(=O)[C@H](Cc2c[nH]c3ccccc23)NC(=O)[C@H](CC(=O)O)NC(=O)[C@H](Cc2ccc(O)cc2)NC(=O)CNC(=O)CSC[C@@H](C(=O)NCC(N)=O)NC(=O)[C@H](CO)NC(=O)[C@H](C(C)C)NC1=O [Example 1258] ({CH2CO}-GYDWV[Bip]R[NMeA][NMeF]RLVSCG-NH2; thioether N-14) | 240 nM
10 | CC(C)C[C@@H]1NC(=O)[C@H](CCCNC(=N)N)NC(=O)[C@H](Cc2ccccc2)N(C)C(=O)[C@H](C)N(C)C(=O)[C@H](CCCNC(=N)N)NC(=O)[C@H](Cc2ccc(-c3ccccc3)cc2)NC(=O)[C@H](C(C)C)NC(=O)[C@H](Cc2c[nH]c3ccccc23)NC(=O)[C@H](CC(=O)O)NC(=O)[C@H](Cc2ccc(O)cc2)NC(=O)[C@H](Cc2cnc[nH]2)NC(=O)CSC[C@@H](C(=O)NCC(N)=O)NC(=O)[C@H](CO)NC(=O)[C@H](C(C)C)NC1=O [Example 1058] ({CH2CO}-HYDWV[Bip]R[NMeA][NMeF]RLVSCG-NH2; thioether N-14) | 130 nM
11 | CC(C)C[C@@H]1NC(=O)[C@H](CCCNC(=N)N)NC(=O)[C@H](Cc2ccccc2)N(C)C(=O)[C@H](C)N(C)C(=O)[C@H](CCCNC(=N)N)NC(=O)[C@H](Cc2ccc(-c3ccccc3)cc2)NC(=O)[C@H](C(C)C)NC(=O)[C@H](Cc2c[nH]c3ccccc23)NC(=O)[C@H](CC(=O)O)NC(=O)[C@H](Cc2ccc(O)cc2)NC(=O)[C@H](CCC(N)=O)NC(=O)CSC[C@@H](C(=O)NCC(N)=O)NC(=O)[C@H](CO)NC(=O)[C@H](C(C)C)NC1=O [Example 1057] ({CH2CO}-QYDWV[Bip]R[NMeA][NMeF]RLVSCG-NH2; thioether N-14) | 130 nM
